Measurements from EP0641797A1, “Cephem derivatives and antimicrobial agents containing the same” (KATAYAMA SEIYAKUSYO CO. Ltd., priority 1993, dated 1995).
Converted amounts (≈) assume the structure as drawn.

Experiments:
Assay in all cases: MIC on standard strains, standard method of Japan Society of Chemotherapy
Assay type in all cases: cell-based
C. freundii ATCC 8090 = conditions: Citrobacter freundii, ATCC8090, C. freundii ATCC 8090; read-out: MIC
Experimental: (§1) Antimicrobial activity of the compounds of the present invention were measured using CTM (cefotiam) and FMOX (flomoxef) as control drugs in accordance with the standard method of Japan Society of Chemotherapy. Of the 25 standard strains used in this test, Staphylococcus aureus 167 and Staphylococcus aureus 195 belong to MRSA.
(§2) In these tables, drugs tested are shown by the corresponding examples in which they were synthesized.

S. marcescens IAM 1184 = conditions: Serratia marcescens, IAM1184, S. marcescens IAM 1184; read-out: MIC
Experimental: as §1, §2

P. cepacia = conditions: Burkholderia cepacia, read-out: MIC
Experimental: as §1, §2

M. luteus ATCC 9341 = conditions: Micrococcus luteus, ATCC9341
Experimental: as §1, §2

S. marcescens No. 16-2 = conditions: Serratia marcescens, NO.162
Experimental: as §1, §2

B. subtilis ATCC 6633 = conditions: Bacillus subtilis, ATCC6633, B. subtilis ATCC 6633; read-out: MIC
Experimental: as §1, §2

A. calcoaceticos T59 = conditions: read-out: MIC
Experimental: as §1, §2

A. faecalis ATCC 3750 = conditions: Alcaligenes faecalis, ATCC3750, A. faecalis ATCC 3750; read-out: MIC
Experimental: as §1, §2

E. cloacae Nek39 = conditions: Enterobacter cloacae, NEK39, E. cloacae Nek39; read-out: MIC
Experimental: as §1, §2

K. pneuminiae IFO 3317 = tested on: K. pneuminiae IFO 3317
Experimental: as §1, §2

E. cloacae ATCC 13407 = conditions: Enterobacter cloacae, ATCC13407, E. cloacae ATCC 13407; read-out: MIC
Experimental: as §1, §2

S. epidemidis IAM 1296 = tested on: S. epidemidis IAM 1296
Experimental: as §1, §2

P. aeruginosa AKR17 = conditions: Pseudomonas aeruginosa
Experimental: as §1, §2

P. vulugaris OX-19 = tested on: P. vulugaris OX-19
Experimental: as §1, §2

M. morganii IFO 3848 = conditions: Morganella morganii, IFO3848
Experimental: as §1, §2

E. coli CSH2(RK1) = conditions: Escherichia coli
Experimental: as §1, §2

E. coli NHIJ JC-2 = conditions: Escherichia coli, NHIJJC2
Experimental: as §1, §2

S. aureus 195 = conditions: Staphylococcus aureus; S. aureus 195 (MRSA)
Experimental: as §1, §2

P. aeruginosa NCTC 10490 = conditions: Pseudomonas aeruginosa, NCTC10490, P. aeruginosa NCTC 10490; read-out: MIC
Experimental: as §1, §2

S. aureus Smith = conditions: Staphylococcus aureus, read-out: MIC
Experimental: as §1, §2

S. aureus 167 = conditions: Staphylococcus aureus; S. aureus 167 (MRSA)
Experimental: as §1, §2

P. mirabilis IFO 3849 = conditions: Proteus mirabilis, IFO3849, P. mirabilis IFO 3849; read-out: MIC
Experimental: as §1, §2

K. pneuminiae No. 42 = tested on: K. pneuminiae No. 42
Experimental: as §1, §2

E. coli CSH2(RE45) = conditions: Escherichia coli
Experimental: as §1, §2

S. aureus 209p JC-1 = conditions: Staphylococcus aureus, 209P, read-out: MIC
Experimental: as §1, §2

Row | SMILES | MIC (C. freundii ATCC 8090) [µg/mL] | MIC (S. marcescens IAM 1184) [µg/mL] | MIC (P. cepacia) [µg/mL] | MIC (M. luteus ATCC 9341) [µg/mL] | MIC (S. marcescens No. 16-2) [µg/mL] | MIC (B. subtilis ATCC 6633) [µg/mL] | MIC (A. calcoaceticos T59) [µg/mL] | MIC (A. faecalis ATCC 3750) [µg/mL] | MIC (E. cloacae Nek39) [µg/mL] | MIC (K. pneuminiae IFO 3317) [µg/mL] | MIC (E. cloacae ATCC 13407) [µg/mL] | MIC (S. epidemidis IAM 1296) [µg/mL] | MIC (P. aeruginosa AKR17) [µg/mL] | MIC (P. vulugaris OX-19) [µg/mL] | MIC (M. morganii IFO 3848) [µg/mL] | MIC (E. coli CSH2(RK1)) [µg/mL] | MIC (E. coli NHIJ JC-2) [µg/mL] | MIC (S. aureus 195) [µg/mL] | MIC (P. aeruginosa NCTC 10490) [µg/mL] | MIC (S. aureus Smith) [µg/mL] | further results
1 | Nc1nc(/C(=N/O)C(=O)N[C@@H]2C(=O)N3C(C(=O)[O-])=C(C[n+]4cccc(-c5ncno5)c4)CS[C@H]23)ns1 [Ex. 5, 7β-[2-(5-amino-1,2,4-thiadiazol-3-yl)-2-syn-hydroxyiminoacetamido]-3-[3-(1,2,4-oxadiazol-5-yl)pyridinio]methyl-3-cephem-4-carboxylate] | 6.25 (≈ 11.8 µM) | 6.25 (≈ 11.8 µM) | > 100 | 0.39 (≈ 0.737 µM) | > 100 | 0.78 (≈ 1.47 µM) | 12.5 (≈ 23.6 µM) | 12.5 (≈ 23.6 µM) | 100 (≈ 189 µM) | 3.13 (≈ 5.91 µM) | 25 (≈ 47.2 µM) | 0.78 (≈ 1.47 µM) | > 100 | 6.25 (≈ 11.8 µM) | 3.13 (≈ 5.91 µM) | 12.5 (≈ 23.6 µM) | 6.25 (≈ 11.8 µM) | 50 (≈ 94.4 µM) | 3.13 (≈ 5.91 µM) | 3.13 (≈ 5.91 µM) | MIC (S. aureus 167): 50 µg/mL (≈ 94.4 µM); MIC (P. mirabilis IFO 3849): 3.13 µg/mL (≈ 5.91 µM); MIC (K. pneuminiae No. 42): 6.25 µg/mL (≈ 11.8 µM); MIC (E. coli CSH2(RE45)): 6.25 µg/mL (≈ 11.8 µM); MIC (S. aureus 209p JC-1): 1.56 µg/mL (≈ 2.95 µM)
2 | Nc1nc(/C(=N/O)C(=O)N[C@@H]2C(=O)N3C(C(=O)[O-])=C(C[n+]4ccc(-c5ncno5)cc4)CS[C@H]23)ns1 [Ex. 6, 7β-[2-(5-amino-1,2,4-thiadiazol-3-yl)-2-syn-hydroxyiminoacetamido]-3-[4-(1,2,4-oxadiazol-5-yl)pyridinio]methyl-3-cephem-4-carboxylate] | 0.78 (≈ 1.47 µM) | 0.78 (≈ 1.47 µM) | > 100 | 0.1 (≈ 0.189 µM) | > 100 | 0.39 (≈ 0.737 µM) | 6.25 (≈ 11.8 µM) | 3.13 (≈ 5.91 µM) | 50 (≈ 94.4 µM) | 0.39 (≈ 0.737 µM) | 6.25 (≈ 11.8 µM) | 0.39 (≈ 0.737 µM) | > 100 | 1.56 (≈ 2.95 µM) | 0.39 (≈ 0.737 µM) | 1.56 (≈ 2.95 µM) | 0.78 (≈ 1.47 µM) | 6.25 (≈ 11.8 µM) | 0.78 (≈ 1.47 µM) | 1.56 (≈ 2.95 µM) | MIC (S. aureus 167): 12.5 µg/mL (≈ 23.6 µM); MIC (P. mirabilis IFO 3849): 0.78 µg/mL (≈ 1.47 µM); MIC (K. pneuminiae No. 42): 1.56 µg/mL (≈ 2.95 µM); MIC (E. coli CSH2(RE45)): 0.78 µg/mL (≈ 1.47 µM); MIC (S. aureus 209p JC-1): 0.78 µg/mL (≈ 1.47 µM)
3 | Nc1nc(/C(=N/O)C(=O)N[C@@H]2C(=O)N3C(C(=O)[O-])=C(C[n+]4cccc(-c5ncno5)c4)CS[C@H]23)cs1 [Ex. 7, 7β-[2-(2-aminothiazol-4-yl)-2-syn-hydroxyiminoacetamido]-3-[3-(1,2,4-oxadiazol-5-yl)pyridinio]methyl-3-cephem-4-carboxylate] | 0.78 (≈ 1.48 µM) | 0.78 (≈ 1.48 µM) | > 100 | 0.2 (≈ 0.378 µM) | > 100 | 0.78 (≈ 1.48 µM) | 25 (≈ 47.3 µM) | 3.13 (≈ 5.92 µM) | 100 (≈ 189 µM) | 0.78 (≈ 1.48 µM) | 6.25 (≈ 11.8 µM) | 0.2 (≈ 0.378 µM) | > 100 | 1.56 (≈ 2.95 µM) | 0.39 (≈ 0.738 µM) | 1.56 (≈ 2.95 µM) | 0.78 (≈ 1.48 µM) | 6.25 (≈ 11.8 µM) | 6.25 (≈ 11.8 µM) | 0.78 (≈ 1.48 µM) | MIC (S. aureus 167): 12.5 µg/mL (≈ 23.7 µM); MIC (P. mirabilis IFO 3849): 0.78 µg/mL (≈ 1.48 µM); MIC (K. pneuminiae No. 42): 1.56 µg/mL (≈ 2.95 µM); MIC (E. coli CSH2(RE45)): 1.56 µg/mL (≈ 2.95 µM); MIC (S. aureus 209p JC-1): 0.39 µg/mL (≈ 0.738 µM)
4 | Nc1nc(/C(=N/O)C(=O)N[C@@H]2C(=O)N3C(C(=O)[O-])=C(C[n+]4ccc(-c5ncno5)cc4)CS[C@H]23)cs1 [Ex. 8, 7β-[2-(2-aminothiazol-4-yl)-2-syn-hydroxyiminoacetamido]-3-[4-(1,2,4-oxadiazol-5-yl)pyridinio]methyl-3-cephem-4-carboxylate] | 0.2 (≈ 0.378 µM) | 0.39 (≈ 0.738 µM) | > 100 | 0.05 (≈ 0.0946 µM) | 100 (≈ 189 µM) | 0.78 (≈ 1.48 µM) | 12.5 (≈ 23.7 µM) | 0.78 (≈ 1.48 µM) | 50 (≈ 94.6 µM) | 0.2 (≈ 0.378 µM) | 3.13 (≈ 5.92 µM) | 0.1 (≈ 0.189 µM) | > 100 | 0.2 (≈ 0.378 µM) | 0.05 (≈ 0.0946 µM) | 1.56 (≈ 2.95 µM) | 0.39 (≈ 0.738 µM) | 3.13 (≈ 5.92 µM) | 1.56 (≈ 2.95 µM) | 0.39 (≈ 0.738 µM) | MIC (S. aureus 167): 12.5 µg/mL (≈ 23.7 µM); MIC (P. mirabilis IFO 3849): 0.2 µg/mL (≈ 0.378 µM); MIC (K. pneuminiae No. 42): 0.78 µg/mL (≈ 1.48 µM); MIC (E. coli CSH2(RE45)): 0.39 µg/mL (≈ 0.738 µM); MIC (S. aureus 209p JC-1): 0.39 µg/mL (≈ 0.738 µM)
5 | Nc1nc(/C(=N/O)C(=O)N[C@@H]2C(=O)N3C(C(=O)[O-])=C(C[n+]4cccc(-c5cscn5)c4)CS[C@H]23)cs1 [Ex. 9, 7β-[2-(2-aminothiazol-4-yl)-2-syn-hydroxyiminoacetamido]-3-[3-(thiazol-4-yl)pyridinio]methyl-3-cephem-4-carboxylate iodide] | 0.2 | 0.39 | > 100 | 0.05 | 50 | 0.2 | 12.5 | 3.13 | 50 | 0.2 | 1.56 | 0.05 | > 100 | 0.39 | 0.1 | 0.39 | 0.2 | 1.56 | 3.13 | 0.2 | MIC (S. aureus 167): 6.25 µg/mL; MIC (P. mirabilis IFO 3849): 0.39 µg/mL; MIC (K. pneuminiae No. 42): 0.39 µg/mL; MIC (E. coli CSH2(RE45)): 0.39 µg/mL; MIC (S. aureus 209p JC-1): 0.1 µg/mL
6 | Nc1nc(/C(=N/O)C(=O)N[C@@H]2C(=O)N3C(C(=O)[O-])=C(C[n+]4ccc(-c5nsc(N)n5)cc4)CS[C@H]23)cs1 [Ex. 11, 7β-[2-(2-aminothiazol-4-yl)-2-syn-hydroxyiminoacetamido]-3-[4-(5-amino-1,2,4-thiadiazol-3-yl)pyridinio]methyl-3-cephem-4-carboxylate] | 0.2 (≈ 0.357 µM) | 0.39 (≈ 0.697 µM) | > 100 | 0.05 (≈ 0.0893 µM) | 100 (≈ 179 µM) | 0.1 (≈ 0.179 µM) | 25 (≈ 44.7 µM) | 1.56 (≈ 2.79 µM) | > 100 | 0.1 (≈ 0.179 µM) | 6.25 (≈ 11.2 µM) | 0.05 (≈ 0.0893 µM) | > 100 | 0.1 (≈ 0.179 µM) | 0.05 (≈ 0.0893 µM) | 0.39 (≈ 0.697 µM) | 0.1 (≈ 0.179 µM) | 1.56 (≈ 2.79 µM) | 3.13 (≈ 5.59 µM) | 0.1 (≈ 0.179 µM) | MIC (S. aureus 167): 6.25 µg/mL (≈ 11.2 µM); MIC (P. mirabilis IFO 3849): 0.2 µg/mL (≈ 0.357 µM); MIC (K. pneuminiae No. 42): 0.39 µg/mL (≈ 0.697 µM); MIC (E. coli CSH2(RE45)): 0.2 µg/mL (≈ 0.357 µM); MIC (S. aureus 209p JC-1): 0.1 µg/mL (≈ 0.179 µM)
